Measured values taken from patent US20260265694A1, “USE OF A VITISIN COMPOUND FOR THE PRODUCTION OF HEMATOPOIETIC CELLS” (ETABLISSEMENT FRANCAIS DU SANG, priority 2022, published 2026).

tested on: CD34+ cells from peripheral blood; assay: AMPLIFICATION PROTOCOL: ex vivo amplification of hematopoietic progenitors; format: cell-based, human; conditions: 10 μM, FIG. 1
Method: This is a strategy for the amplification of hematopoietic progenitors. The culture is formed as follows: CD34^+ cells from peripheral blood are isolated (as indicated in section II.A.1), and cultured for 12 days in Stem Span II medium (Stem Cell Technologies) supplemented with cytokines: SCF 100 ng/mL, FLT3-L 100 ng/mL, TPO 20 ng/mL, G-CSF 10 ng/mL. The amplification product is analyzed by quantification of proliferation (count on Malassez slides) and phenotypic analysis of CD34^+ cell subpopulations by flow cytometry. […] Vitisin B is also compared with the following stilbene-type molecules at 10 μM concentration: Resveratrol, Pallidol, E-Viniferin, Ampelopsin, Oxyresveratrol, Picateatannol, Gnetol
At the end of the hematopoietic cell amplification protocol, an analysis of cell proliferation and amplification of immature and committed cell populations is performed.
Cell proliferation is evaluated by counting cells on Malassez slides with Trypan blue exclusion of dead cells.
The amplification of cell populations is based on a phenotypic analysis relating to the evolution of the expression of membrane markers CD34 and CD133 by flow cytometry. These markers make it possible to define more or less immature cell populations organized hierarchically as follows: CD34^+CD133^+->CD34^+CD133^neg->CD34^negCD133^neg. To this end, cells are incubated with anti-CD34 (1:100,000) (BD Pharmingen) and anti-CD133 (1:100,000) (BD Pharmingen) antibodies for 15 minutes. The cells are then rinsed with a PBS solution and centrifuged (430×g, 10 min, 4° C.). After resuspension of the cell pellets in PBS, the cells are analyzed by flow cytometry (FACSCantoll, Becton Dickinson, San Jose, CA).
The proportions of each phenotypic population thus observed and the total amount of cells make it possible to calculate the rate of amplification of the most immature cells (CD34^+CD133+) compared with the amplification of more committed progenitors (CD34^+CD133^neg and CD34^negCD133^neg).

Structure (SMILES) | amplification of the CD34+CD133neg subpopulation (erythrocyte potential)
Oc1ccc(C=Cc2cc(O)cc(O)c2)cc1 [RESVERATROL, Resveratrol] | no effect

same assay, conditions: 10 μM, FIG. 2

Structure (SMILES) | effect on the proportion and total amount of CD34+CD133neg cells
O=C1c2c(O)cc(O)cc2O[C@H](c2cc(O)c(O)c(O)c2)[C@H]1O [AMPELOPSIN, Ampelopsin] | only vitisin B has a convincing effect
Oc1ccc(/C=C/c2cc(O)cc3c2[C@@H](c2cc(O)cc(O)c2)[C@H](c2ccc(O)cc2)O3)cc1 [E-VINIFERIN, E-Viniferin] | only vitisin B has a convincing effect
Oc1cc(O)cc(/C=C/c2c(O)cccc2O)c1 [GNETOL, Gnetol] | only vitisin B has a convincing effect
Oc1cc(O)cc(/C=C/c2ccc(O)cc2O)c1 [OXYRESVERATROL, Oxyresveratrol] | only vitisin B has a convincing effect
Oc1ccc(C=Cc2cc(O)cc(O)c2)cc1 [RESVERATROL, Resveratrol] | only vitisin B has a convincing effect
